In PubChem BioAssay AID1963872 (Molecular Pharmacology Branch, DTP, NCI, 2024):

System: KRAS patient-derived spheroids with HUVEC/MSC, viability
Assay: Anticancer human tumor 519858-162-T-J1-PDC patient-derived colon adenocarcinoma cell line growth inhibition [KRAS2]
Details: for viability, T/C: stronger effect = lower value
How it was run: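 KRAS-mutant tumor cells were grown as spheroids with HUVEC endothelial cells and human MSCs as stroma. Targeted agents were tested alone and with KRAS pathway inhibitors. Doses started at or near clinical Cmax, or 10 microM, descending half-log.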

[1] = curve of first compound, second compound 0.1 µM
[2] = curve of first compound, second compound 0.316 µM
[3] = curve of first compound, second compound 1 µM
[4] = curve of first compound, second compound 3.16 µM
[5] = second compound 0.1 µM, first compound 0.0316 µM
[6] = second compound 0.1 µM, first compound 0.1 µM
[7] = second compound 0.316 µM, first compound 0.0316 µM
[8] = second compound 0.316 µM, first compound 0.1 µM
[9] = second compound 1 µM, first compound 0.0316 µM
[10] = second compound 1 µM, first compound 0.1 µM
[11] = second compound 3.16 µM, first compound 0.0316 µM
[12] = second compound 3.16 µM, first compound 0.1 µM
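Note: compound exposure lasted seven days before readout.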
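Throughout, for viability, T/C: 100% = DMSO vehicle control viability.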

SMILES: COC(=O)c1ccc2c(C(=Nc3ccc(N(C)C(=O)CN4CCN(C)CC4)cc3)c3ccccc3)c(O)[nH]c2c1 + C=CC(=O)N1CCN(c2nc(OCC3CCCN3C)nc3c2CCN(c2cccc4cccc(C)c24)C3)CC1CC#N
- IC50 (curve of first compound, second compound 0.0316 µM): > 10 µM
- IC50 [1]: > 10 µM
- IC50 [2]: > 10 µM
- IC50 [3]: > 10 µM
- IC50 [4]: 4.84 µM
- viability, T/C (second compound 0.0316 µM, first compound 0.0316 µM): 97.4%
- viability, T/C (second compound 0.0316 µM, first compound 0.1 µM): 113%
- viability, T/C (second compound 0.0316 µM, first compound 0.316 µM): 86.8%
- viability, T/C (second compound 0.0316 µM, first compound 1 µM): 97.8%
- viability, T/C (second compound 0.0316 µM, first compound 3.16 µM): 76.4%
- viability, T/C (second compound 0.0316 µM, first compound 10 µM): 106%
- viability, T/C [5]: 89%
- viability, T/C [6]: 89.5%
- viability, T/C (second compound 0.1 µM, first compound 0.316 µM): 65.8%
- viability, T/C (second compound 0.1 µM, first compound 1 µM): 68.4%
- viability, T/C (second compound 0.1 µM, first compound 3.16 µM): 120%
- viability, T/C (second compound 0.1 µM, first compound 10 µM): 68.7%
- viability, T/C [7]: 90.4%
- viability, T/C [8]: 73.5%
- viability, T/C (second compound 0.316 µM, first compound 0.316 µM): 59.7%
- viability, T/C (second compound 0.316 µM, first compound 1 µM): 66.7%
- viability, T/C (second compound 0.316 µM, first compound 3.16 µM): 68.9%
- viability, T/C (second compound 0.316 µM, first compound 10 µM): 76.9%
- viability, T/C [9]: 61.9%
- viability, T/C [10]: 74.7%
- viability, T/C (second compound 1 µM, first compound 0.316 µM): 67.5%
- viability, T/C (second compound 1 µM, first compound 1 µM): 57.1%
- viability, T/C (second compound 1 µM, first compound 3.16 µM): 81.7%
- viability, T/C (second compound 1 µM, first compound 10 µM): 147%
- viability, T/C [11]: 60.5%
- viability, T/C [12]: 75.1%
- viability, T/C (second compound 3.16 µM, first compound 0.316 µM): 68.6%
- viability, T/C (second compound 3.16 µM, first compound 1 µM): 109%
- viability, T/C (second compound 3.16 µM, first compound 3.16 µM): 82.2%
- viability, T/C (second compound 3.16 µM, first compound 10 µM): 0.39%

SMILES: CN(C)C/C=C/C(=O)Nc1cc2c(Nc3ccc(F)c(Cl)c3)ncnc2cc1O[C@H]1CCOC1 + C=CC(=O)N1CCN(c2nc(=O)n(-c3c(C)ccnc3C(C)C)c3nc(-c4c(O)cccc4F)c(F)cc23)C(C)C1
- IC50 [1]: > 0.1 µM
- IC50 [2]: > 0.1 µM
- IC50 [3]: > 0.1 µM
- IC50 [4]: > 0.1 µM
- IC50 (curve of first compound, second compound 10 µM): > 0.1 µM
- viability, T/C (second compound 0.1 µM, first compound 0.000316 µM): 86.2%
- viability, T/C (second compound 0.1 µM, first compound 0.001 µM): 95%
- viability, T/C (second compound 0.1 µM, first compound 0.00316 µM): 86.8%
- viability, T/C (second compound 0.1 µM, first compound 0.01 µM): 80%
- viability, T/C [5]: 87.4%
- viability, T/C [6]: 84.8%
- viability, T/C (second compound 0.316 µM, first compound 0.000316 µM): 85.6%
- viability, T/C (second compound 0.316 µM, first compound 0.001 µM): 103%
- viability, T/C (second compound 0.316 µM, first compound 0.00316 µM): 75.2%
- viability, T/C (second compound 0.316 µM, first compound 0.01 µM): 86%
- viability, T/C [7]: 93.9%
- viability, T/C [8]: 60.2%
- viability, T/C (second compound 1 µM, first compound 0.000316 µM): 110%
- viability, T/C (second compound 1 µM, first compound 0.001 µM): 77.8%
- viability, T/C (second compound 1 µM, first compound 0.00316 µM): 71%
- viability, T/C (second compound 1 µM, first compound 0.01 µM): 83.4%
- viability, T/C [9]: 61.9%
- viability, T/C [10]: 80.2%
- viability, T/C (second compound 3.16 µM, first compound 0.000316 µM): 61.4%
- viability, T/C (second compound 3.16 µM, first compound 0.001 µM): 69.7%
- viability, T/C (second compound 3.16 µM, first compound 0.00316 µM): 90.5%
- viability, T/C (second compound 3.16 µM, first compound 0.01 µM): 61.1%
- viability, T/C [11]: 61.5%
- viability, T/C [12]: 81.7%
- viability, T/C (second compound 10 µM, first compound 0.000316 µM): 74.8%
- viability, T/C (second compound 10 µM, first compound 0.001 µM): 92.6%
- viability, T/C (second compound 10 µM, first compound 0.00316 µM): 79.1%
- viability, T/C (second compound 10 µM, first compound 0.01 µM): 67.5%
- viability, T/C (second compound 10 µM, first compound 0.0316 µM): 80.9%
- viability, T/C (second compound 10 µM, first compound 0.1 µM): 73.6%

SMILES: COc1cc(Nc2ncc3c(n2)-c2ccc(Cl)cc2C(c2c(F)cccc2OC)=NC3)ccc1C(=O)O
- viability, T/C (compound 0.1 µM): 74.8% [middle of 5 runs]
- IC50 (curve of compound): > 10 µM
